We go through two compounds from article PMC11493283, “N^4-Hydroxycytidine/molnupiravir inhibits RNA virus-induced encephalitis by producing less fit mutated viruses” (PLOS Pathogens, 2024).

The subject of one data set is Cache Valley virus (CVV). Kind of data set: Antiviral efficacy against Cache Valley virus in Vero cells, plaque assay. The class given is cell-based. Particulars: 24 hpi, read-out: EC50 infectious virus production. The protocol: (§1) Cells were seeded in 24-well plates (1 × 10^5 cells/well) and infected with LACV (0.1 MOI). At 1 hour post infection (hpi), medium was replaced with fresh medium containing 6 different concentrations for each of the drugs. RBV and FAV were tested at concentrations of 1, 3, 10, 30, 100, and 300 μM, while NHC was tested at concentrations of 0.1, 0.3, 1, 3, 10 and 30 μM. DMSO was used as vehicle control. At 24 hpi, the cell supernatant was harvested, centrifuged to eliminate cell debris and stored at −80 °C for sequencing (described below) and plaque assay following the method of Ojha et al. 2021 [32]. Quantified virus titers were plotted to represent antiviral efficacy. The EC50 (50% effective concentration representing a 50% reduction in virus titer) was determined by extrapolating a dose-response curve using GraphPad Prism 8 and 9.
(§2) We also evaluated the ability of NHC to inhibit the replication of two other orthobunyaviruses, Cache Valley virus (CVV) and Jamestown Canyon (JCV). JCV belongs to the same serogroup as LACV but causes neurological disease in both children and adults. CVV is a member of the Bunyamwera serogroup and is the most common orthobunyavirus in the United States. Infections were done following the same protocol as for Fig 1. […] Thus, NHC inhibited virus replication for multiple orthobunyaviruses in different serogroups with similar potency.

Data set [1] concerns LACV. As to the kind of experiment: Antiviral efficacy against LACV in Vero cells, virus titer by plaque assay. Type of data set: cell-based. Particulars: La Crosse virus, LACV 0.1 MOI, 24 hpi, read-out: EC50 (50% reduction in virus titer). The procedure:
as §1

Data set [2] relates to LACV. Kind of data set: Antiviral efficacy against LACV in hNSCs, virus titer by plaque assay. Type of data set: cell-based. The following applies: La Crosse virus, LACV 0.1 MOI, 24 hpi, read-out: EC50 (50% reduction in virus titer). The procedure:
as §1

The test system of data set [3] is LACV. As to the kind of experiment: Serial passage of LACV in presence of NHC in Vero cells (resistance selection). Type of data set: cell-based, La Crosse virus. The following applies: for EC50: La Crosse virus, Vero cells. The procedure:
as §1
We used a digital scanner to scan the plaque assay plates. Digitized images were imported into FIJI/ImageJ v1.52n, and pixel calibration values were calculated based on the well diameter and corresponding digitized image. To quantify plaque size (surface area), wells with clearly isolated plaques were selected for segmentation and analysis. The image lookup table for each well was inverted followed by binarization prior to analysis, with a minimum area of 0.39 mm^2 to eliminate false positives due to slight variations in crystal violet staining. The measurements were imported into Microsoft Excel for data compilation, and graphed and analyzed using GraphPad Prism v9.3.1. Analysis of plaque size was done only when the plaque assays for different virus samples were done in parallel.
Vero cells were seeded at 5×10^5 cells/well in a 6-well plate for each passage. For the first passage, Vero cells were infected with LACV at MOIs of 10, 0.1, and 0.001 in 3 ml of medium, and treated with 0.1 μM of NHC or DMSO vehicle control. After 3 dpi, the virus inoculum was harvested from wells where more than 25% of cells were still attached to the well (using light microscopy). The harvested supernatants were centrifuged to clarify dead cells and then used to reinfect Vero cells at dilutions of 1:1,000, 1:100,000, and 1:10,000,000 and treated with 0.1 μM NHC for the first series of 5 passages where at each passage the culture with the highest dilution of virus that still gave rise to incomplete CPE (i.e. 25% of the cells still attached) was saved for the next passage. Second, third, and fourth series of 5 passages were treated with 0.2, 0.4 and 0.8 μM of NHC, respectively. After 20 passages in total, virus suspensions were collected, centrifuged, and frozen at −80°C to perform dose-dependent antiviral activity and plaque assays for virus titers (as described above).

In a further data set the test system is Jamestown Canyon (JCV). Kind of data set: Antiviral efficacy against Jamestown Canyon virus in Vero cells, plaque assay. Type of data set: cell-based. Particulars: 24 hpi, read-out: EC50 infectious virus production. The protocol: as §1, §2
Data set [4] concerns LACV. As to the kind of experiment: Antiviral efficacy against LACV in N2a cells, virus titer by plaque assay. The class given is cell-based. Particulars: La Crosse virus, LACV 0.1 MOI, 24 hpi, read-out: EC50 (50% reduction in virus titer). The protocol:
as §1

The nature of the next data set: in vitro. The class given is cell-based. The following applies: MTT, 24h. The protocol:
Method: Cells were seeded in 96-well plates (1-2x10^4 cells/well) after attachment different concentrations of each drug containing fresh media were added to each well, in triplicate. DMSO was used as a control. At 24h post-treatment, MTT assays were carried out according to the manufacturer’s instructions (Invitrogen, ThermoFisher Scientific). The absorbance was measured using the Synergy 4 cell plate reader (BioTek) at 540 nm. This assay was used to estimate the drug-induced cytotoxicity using the following formula: (sample absorbance/DMSO absorbance) × 100%. The CC50 (50% cytotoxic concentration) was determined by extrapolating the dose–response curve.

For data set [5], the system named is LACV. Kind of data set: MPID-NGS mutation rate of LACV in cell culture. Type of data set: cell-based, La Crosse virus. Particulars: Vero cells; RBV, FAV: increase only at 100 μM; NHC also in hNSCs and N2a. The procedure: as §1
We used a Primer ID (PID) library preparation approach with Illumina MiSeq next-generation sequencing (NGS) to examine the mutagenic effects of these drugs on viral RNA allowing deep coverage of the viral population while maintaining a low method error rate (1 in 10,000 nucleotides). We designed cDNA primers targeting a 372 bp region of the RdRp gene within the L segment (referred as L7 in the study), and included a second amplicon covering a 455 bp portion of the M segment (referred as M4 in the study). Each cDNA primer included a block of random nucleotides (11 bases long) as the Primer ID/unique molecular identifier (UMI). […] After gel purification/extraction of the PCR product (Qiagen MinElute Gel Extraction kit), the extracted libraries were quantified using a Qubit fluorimeter and subjected to Agilent TapeStation analysis. For each sequencing run, 24 quantified libraries were pooled for MiSeq 300 base paired-end sequencing at the UNC High Throughput Sequencing Facility. […] Each type of substitution rate was calculated against the wildtype sequence at the sequenced regions. The sequencing date were submitted to the National Center for Biotechnology Information (NCBI) Sequence Read Archive (SRA), accession number is PRJNA1092655.

[6] abbreviates: African green monkey, Vero cells.

`O=c1nc(NO)ccn1[C@@H]1O[C@H](CO)[C@@H](O)[C@H]1O` [NHC, N^4-hydroxycytidine]: the concentration for a half-maximal effect (EC50) in the data set with Cache Valley virus (CVV) was found to be 0.25 µM; with LACV [1], 0.57 µM; with LACV [2] it was 1.2 µM; in the data set with LACV [3] (after 20 passages with 0.1 to 0.8 μM NHC, read-out: EC50 against NHC-selected LACV), 0.49 µM; with LACV [3] (after 20 passages, read-out: EC50 against control (DMSO) passaged LACV) it was 0.5 µM; with Jamestown Canyon (JCV) it was 0.3 µM. Further, the EC50 with LACV [4] was 1.5 µM. Further, the “supernatant virus titer at end of selection lower than control passaged virus” value with LACV [3] (passage 20) is on record as “approximately 15 fold”. The “average plaque size of virus passaged with NHC vs DMSO control” value with LACV [3] (passage 20 virus stocks) was “significantly smaller”. Moreover, the half-maximal cytotoxic concentration (CC50) in the data set “in vitro” (setting [6]) was determined as 203 µM; in the data set “in vitro” (human, hNSCs), 132 µM. In the data set on LACV [5], the “mutation rate of LACV grown in presence of drug” value was “dose-dependent relationship”.
Turning to `NC(=O)c1ncn([C@@H]2O[C@H](CO)[C@@H](O)[C@H]2O)n1` [RBV, ribavirin], the results for the EC50 in the data set on LACV [1], in the data set on LACV [2] and in the data set with LACV [4] were 42.7 µM, 27.7 µM and 3.8 µM, respectively. Further, the CC50 in the data set “in vitro” (setting [6]) was found to be 1780 µM; in the data set “in vitro” (human, hNSCs) it was 1260 µM. Further, the “mutation rate of LACV grown in presence of drug” value in the data set with LACV [5] is given as “did not see a significant increase in mutation rates”.

A word on the EC50: it is the midpoint of the concentration-response curve. In general, CC50 refers to the concentration at which the toxic effect on the cells reaches its halfway point.
